Conditions: for surface tension liquid-gas: Maximal bubble pressure; for mass density / electrical conductivity / viscosity: 101.33 kPa, Liquid; for mass density: Buoyancy - hydrostatic balance; for electrical conductivity: MP522 conductivity instrument; for viscosity: Capillary tube (Ostwald / Ubbelohde) method

CCCCNC(=O)C[n+]1ccn(CC)c1.O=S(=O)([N-]S(=O)(=O)C(F)(F)F)C(F)(F)F
Conditions | electrical conductivity [S/m] | mass density [kg/m3] | surface tension liquid-gas [mN/m] | viscosity [mPa·s]
283.15 K | 0.00606 | 1431 | 32.7 | –
288.15 K | 0.00985 | 1427 | 32.4 | –
293.15 K | 0.0153 | 1422.7 | 32.2 | –
298.15 K | 0.0233 | 1418 | 31.8 | 777.5
303.15 K | 0.0332 | 1413.5 | 31.6 | 517.3
308.15 K | 0.0467 | 1409 | 31 | 359
313.15 K | 0.0639 | 1404.4 | 30.8 | 255.2
318.15 K | 0.0854 | 1399.7 | 30.5 | 187.9
323.15 K | 0.111 | 1395.4 | 30.3 | 138.9
328.15 K | 0.141 | 1391 | 29.8 | 106
333.15 K | 0.177 | 1386.7 | 29.4 | 82.1
338.15 K | 0.219 | 1382.3 | 29 | 64.4
343.15 K | – | – | – | 53.3
348.15 K | – | – | – | 43.5
353.15 K | – | – | – | 35.8
358.15 K | – | – | – | 30
363.15 K | – | – | – | 25.3
